The values below are quoted from earlier work in patent US11369498B2, “Stent and stent delivery system with improved deliverability” (MT Acquisition Holdings LLC, priority 2010, dated 2022).

For the data set the following is noted: 25 C.

Turning to `[Cl-].[Na+]` [NaCl], the Water sol is listed as 35.7 g/100 g.
